Experimental data reported in PMC10917278, “Structural insights into the modulation Of SOD1 aggregation By a fungal metabolite Phialomustin-B: Therapeutic potential in ALS” (PLOS ONE, 2024).
Entries after “also recorded” stand apart in the source; their conditions may differ.

Assays:
[1] = target: T1, SOD1^WT (Homo sapiens, UniProt P00441); test: Microscale thermophoresis (MST) binding assay, Cys-labeled SOD1^WT; settings: PBS buffer, protein 25 nM, PB 30.5 nM to 250 μM, 25 °C, SEM n = 3, read-out: binding affinity Kd
T1 construct: The full-length constructs of SOD1-wild type (aa: 1–145); His-tag (cleaved yes); made in house; host or cells: E. coli BL21 DE3
T1 sequence (P00441 whole entry): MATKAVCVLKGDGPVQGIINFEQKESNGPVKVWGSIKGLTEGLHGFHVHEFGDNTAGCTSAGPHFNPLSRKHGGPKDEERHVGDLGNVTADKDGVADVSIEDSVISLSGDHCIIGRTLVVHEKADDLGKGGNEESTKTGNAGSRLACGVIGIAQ
Protocol: To evaluate the binding efficiency of the ligand PB with SOD1^WT, a quantitative binding assay by microscale thermophoresis (MST) was performed. SOD1^WT was labeled at its cysteine residues to ensure non-interference with lysine-containing binding sites of PB (K9, K122, and K128). The cysteine label targeted free cysteines lying away from the ligand-binding site region. The fluorescently labeled SOD1^WT and 16 different concentrations of PB from 250 μM to 30.5 nM were prepared to evaluate the binding interactions between SOD1^WT and PB, as discussed in the methodology. […] The binding affinity was calculated based on the directional movement of molecules along a temperature gradient and the thermophoretic properties of the protein-ligand molecules.
Fig 4 MST interaction analysis of fluorescently labeled SOD1^WT against PB. The binding of PB to fluorescently Cys-labeled SOD1^WT is quantified in PBS buffer. The concentration of PB varied from 30.5 nM to 250 μM, while the protein SOD1^WT was kept constant at 25 nM. MST experiments were conducted at 20% LED excitation and medium MST power at 25 °C. […] Error bars indicate the standard error of the mean, SEM (n = 3).
(§1) Binding studies were performed for SOD1^WT and the ligands using microscale thermophoresis (MST). […]

[2] = target: T2, SOD1^G10P (Homo sapiens, UniProt P00441, G11P); test: MST binding assay, site-specific mutant SOD1^G10P; settings: PBS buffer, mutant 25 nM, PB 30.5 nM to 250 μM, 25 °C, SEM n = 3, read-out: binding affinity Kd
T2 construct: His-tag (cleaved yes); made in house; host or cells: E. coli BL21-DE3
T2 sequence (P00441 whole entry G11P): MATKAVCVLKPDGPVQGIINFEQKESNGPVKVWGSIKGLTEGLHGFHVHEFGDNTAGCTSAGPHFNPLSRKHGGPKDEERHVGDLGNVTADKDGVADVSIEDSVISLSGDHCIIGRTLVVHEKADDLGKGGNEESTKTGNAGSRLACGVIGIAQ
Protocol: (§2) To further validate the binding of PB to SOD1, site-directed mutagenesis was performed for the interacting residues at the binding sites of PB. The point mutations generated on the SOD1 protein are K9F, G10P, L42R, and A123F. The MST assay was carried out on these mutants against PB (Fig 5). The dose-response curve with the highest signal-to-noise ratio, high response amplitude, and lowest error rate was selected for measuring the binding affinity (Kd) value. […] Binding at the electrostatic loop is affected majorly by mutating residues at A123 to phenylalanine and L42 to arginine. […] Taken together, the binding affinities of these mutants confirm the ligand bindings at these sites of SOD1 are specific.
(§3) Fig 5 MST interaction analysis of fluorescently labeled SOD1 mutants against PB. The binding of PB to fluorescently Cys-labeled SOD1- variants is quantified in PBS buffer. The concentration of PB varied from 30.5 nM to 250 μM, while the respective mutants were kept constant at 25 nM. MST experiments were conducted at 20% LED excitation and medium MST power at 25 °C. […] Error bars indicate the standard error of the mean, SEM (n = 3). […] The ligand PB is printed only in the titles of panels a-d, so the mutant names are used as the substance labels.
as §1

[3] = target: T3, SOD1^A123F (Homo sapiens, UniProt P00441, A124F); test: MST binding assay, site-specific mutant SOD1^A123F; settings: PBS buffer, mutant 25 nM, PB 30.5 nM to 250 μM, 25 °C
T3 construct: His-tag (cleaved yes); made in house; host or cells: E. coli BL21-DE3
T3 sequence (P00441 whole entry A124F): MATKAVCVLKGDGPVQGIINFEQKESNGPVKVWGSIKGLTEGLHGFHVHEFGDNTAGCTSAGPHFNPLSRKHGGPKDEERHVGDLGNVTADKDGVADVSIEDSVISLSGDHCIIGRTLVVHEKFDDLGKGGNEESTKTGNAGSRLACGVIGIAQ
Protocol: as §2, §3, §1

[4] = target: T4, SOD1^K9F (Homo sapiens, UniProt P00441, K10F); test: MST binding assay, site-specific mutant SOD1^K9F; settings: PBS buffer, mutant 25 nM, PB 30.5 nM to 250 μM, 25 °C
T4 construct: His-tag (cleaved yes); made in house; host or cells: E. coli BL21-DE3
T4 sequence (P00441 whole entry K10F): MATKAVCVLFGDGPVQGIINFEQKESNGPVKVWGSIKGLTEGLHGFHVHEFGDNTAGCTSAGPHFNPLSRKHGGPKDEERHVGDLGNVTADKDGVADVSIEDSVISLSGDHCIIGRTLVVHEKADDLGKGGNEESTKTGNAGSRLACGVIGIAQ
Protocol: as §2, §3, §1

Kd [1]: 3.7 ± 1.2 µM
Kd [2]: 15.9 ± 2.65 µM
binding affinity Kd [4]: no binding
Structure (SMILES): CCCC[C@H](C)/C=C(C)/C=C/C(=O)O [PB, (S, 2E, 4E)-4,6-dimethyldeca-2,4-dienoic acid]
binding affinity Kd [3]: very weak binding; also recorded: weak-binding
